“And” between values parts separate entries of the source, which are not always exact repeats. Equal entries are not always repeated.
Columns and labels:
lupus = test: SLE (lupus) model: blood urea nitrogen (BUN) in serum; type: in vivo, MRL/MpJ-Faslpr mice; details: Week 19
Protocol: Female MRL/MpJ-Faslpr mice (The Jackson Laboratory) were used to assess the efficacy of Compound A in treating lupus. Starting when animals were 10 weeks of age, protein concentration in urine was measured using urine dipsticks.
At the start of the study, each group in the study had two animals that were 9 weeks old, and all others were 10 weeks old. Dosing of all animals with the test compounds began when the older animals were 11 weeks old. Starting on Day 1, in Groups 1-4, vehicle or Compound A was administered per os (PO) […] (QD) as described above in Table 33. […] Dosing was at a consistent time each dosing day throughout the study.
Compound A may be formulated as illustrated in Experimental Method A (see Table 2E.). […] A stock solution of Compound A in DMSO (stock solution concentration of Compound A of 40 mg/mL) was prepared and aliquots for weekly preparations were frozen at −20° C. On each preparation day, a stock solution aliquot was thawed and diluted with other vehicle components to the desired concentration. Formulated Compound A and vehicle were at room temperature for dosing.
The study began when the older animals were 11 weeks old, and concluded when the older animals were 19 weeks old. Body weight was recorded once a week, with the exception of two weight measurements taken the first week of the study (when the older animals were 11 weeks old). Proteinuria was measured in the urine of animals with urine dipsticks once a week, starting when the older animals were 10 weeks old. […] Blood samples were taken retro-orbitally at the start of the study to establish a baseline (15 animals, 3 per group), and when the older animals were 16 weeks (all animals) and when animals were 19 weeks (all animals) at the conclusion of the study. Blood urea nitrogen (BUN) was measured in all animals at study termination in blood samples. After blood collection, animals were euthanized, perfused with PBS, and the left kidneys were collected and weighed and fixed in 10% buffered formalin. Left kidneys were then processed to a formalin-fixed, paraffin-embedded (FFPE) block, and histology was analyzed in Periodic Acid-Schiff-stained sections (1 section per slide), using the criteria described in Alperovich et al., Lupus, 16:18-24 (2007). Right kidneys were weighed and snap-frozen at −80° C. Spleens were also collected and weighed. SLE in animals treated with a BET inhibitor and vehicle.
BUN provides important information about how well kidneys are working. A BUN test measures the amount of urea nitrogen in the blood and indicates how much urea has been processed by the kidneys and is indicative of renal competency. Urea is a waste product that is excreted in urine.

[1] = tested on: gastrointestinal mucosa / goblet cells; test: Gastrointestinal histopathology (Dog PK Study #4); type: in vivo; details: healthy beagle dogs; 10 mg/kg; Day 15
Protocol: Oral pan-BD BET inhibitors are known to negatively impact gastrointestinal mucosa through goblet cell toxicity, leading to related gastrointestinal adverse events in the clinic (Faivre et al., Nature, 578:306-310 (2020)). Therefore, the impact of Compound A on gastrointestinal toxicity and the mucosa was assessed in healthy beagle dogs as part of Dog PK Study #4, outlined in Experimental Method B.
Following completion of Dog PK study #4 on Day 15, animals were euthanized, and the large and small intestines were collected and fixed in 10% neutral buffered formalin. The tissues were then removed from the fixative, processed, embedded in paraffin, sectioned, and stained with hematoxylin and eosin, prior to microscopic examination.

UUO study: body weight = type: in vivo; details: UUO rats; for Body Weight: 10 mg/kg QD, 10 mg/kg; for Mean + SD of Body Weight: group 3, group mean

Q: Which BUN serum concentration (lupus; Compound A 1 mg/kg PO QD) does the source give for `Cn1cc(-c2ccccc2)c(-c2cn(C)c(=O)c3[nH]c(-c4cnn(C(F)(F)F)c4)cc23)cc1=O` [Compound A, 6-methyl-4-(1-methyl-2-oxo-5-phenyl-1,2-dihydropyridin-4-yl)-2-(1-(trifluoromethyl)-1H-pyrazol-4-yl)-1,6-dihydro-7H-pyrrolo[2,3-c]pyridin-7-one] here?
A: 18.0 mg/dL

Q: And the BUN serum concentration (lupus; Compound A 3 mg/kg PO QD)?
A: 16.8 mg/dL

Q: What about the BUN serum concentration (lupus; Compound A 10 mg/kg PO QD) of the same compound?
A: 11.0 mg/dL

Q: And the “Blood urea nitrogen (BUN) concentration in serum” value (lupus; highest dose (10 mg/mL))?
A: 11 mg/dL

Q: What about the “Effect on gastrointestinal villus morphology or goblet cell number” value [1] of the same compound?
A: no deleterious effect

Q: What about the “Body Weight” value (UUO study: body weight; individual animals 1-8, Day 0) of the same compound?
A: 304 g (2×) and 308 g and 291 g and 306 g and 307 g

Q: What about the “Body Weight” value (UUO study: body weight; individual animals 1-8, Day 1) of the same compound?
A: 290 g and 296 g and 304 g and 281 g and 279 g and 298 g

Q: What about the “Body Weight” value (UUO study: body weight; individual animals 1-8, Day 2) of the same compound?
A: 283 g and 294 g and 297 g and 281 g and 275 g and 290 g

Q: And the “Body Weight” value (UUO study: body weight; individual animals 1-8, Day 3)?
A: 286 g and 292 g and 298 g and 280 g and 276 g and 288 g

Q: And the “Body Weight” value (UUO study: body weight; individual animals 1-8, Day 4)?
A: 285 g and 288 g and 301 g and 277 g and 275 g and 294 g

Q: And the “Body Weight” value (UUO study: body weight; individual animals 1-8, Day 5)?
A: 283 g and 290 g and 300 g and 278 g and 268 g and 285 g

Q: What about the “Body Weight” value (UUO study: body weight; individual animals 1-8, Day 6) of the same compound?
A: 283 g and 290 g (2×) and 297 g and 281 g and 266 g and 275 g

Q: And the “Body Weight” value (UUO study: body weight; individual animals 1-8, Day 7)?
A: 290 g and 285 g and 303 g and 280 g and 260 g and 299 g and 274 g

Q: And the “Body Weight” value (UUO study: body weight; individual animals 1-8, Day 8)?
A: 295 g and 284 g and 304 g and 279 g and 262 g and 303 g and 275 g

Q: What about the “Body Weight” value (UUO study: body weight; individual animals 1-8, Day 9) of the same compound?
A: 305 g and 284 g (2×) and 310 g and 279 g and 304 g and 275 g

Q: What about the “Body Weight” value (UUO study: body weight; individual animals 1-8, Day 10) of the same compound?
A: 300 g and 284 g and 311 g and 277 g and 270 g and 304 g

Q: And the “Body Weight” value (UUO study: body weight; individual animals 1-8, Day 11)?
A: 298 g and 297 g and 311 g and 278 g and 271 g and 315 g

Q: What about the “Body Weight” value (UUO study: body weight; individual animals 1-8, Day 12) of the same compound?
A: 295 g and 291 g and 319 g and 283 g and 271 g and 315 g

Q: What about the “Body Weight” value (UUO study: body weight; individual animals 1-8, Day 13) of the same compound?
A: 294 g and 293 g and 318 g and 286 g and 270 g and 320 g

Q: And the “Body Weight” value (UUO study: body weight; individual animals 1-8, Day 14)?
A: 298 g and 296 g and 322 g and 291 g and 281 g and 331 g

Q: What about the “Body Weight” value (UUO study: body weight; individual animals 1-8, Day −1) of the same compound?
A: 284 g and 304 g and 299 g and 289 g and 297 g and 301 g

Q: What about the “Mean + SD of Body Weight” value (UUO study: body weight; Day 0) of the same compound?
A: 302 ± 6 g

Q: What about the “Mean + SD of Body Weight” value (UUO study: body weight; Day 1) of the same compound?
A: 288 ± 11 g

Q: What about the “Mean + SD of Body Weight” value (UUO study: body weight; Day 2) of the same compound?
A: 285 ± 8 g

Q: And the “Mean + SD of Body Weight” value (UUO study: body weight; Day 3)?
A: 284 ± 9 g

Q: What about the “Mean + SD of Body Weight” value (UUO study: body weight; Day 4) of the same compound?
A: 283 ± 11 g

Q: And the “Mean + SD of Body Weight” value (UUO study: body weight; Day 5)?
A: 281 ± 11 g

Q: And the “Mean + SD of Body Weight” value (UUO study: body weight; Day 6)?
A: 282 ± 10 g

Q: And the “Mean + SD of Body Weight” value (UUO study: body weight; Day 7)?
A: 284 ± 14 g

Q: What about the “Mean + SD of Body Weight” value (UUO study: body weight; Day 8) of the same compound?
A: 285 ± 15 g

Q: And the “Mean + SD of Body Weight” value (UUO study: body weight; Day 9)?
A: 291 ± 13 g

Q: What about the “Mean + SD of Body Weight” value (UUO study: body weight; Day 10) of the same compound?
A: 289 ± 14 g

Q: And the “Mean + SD of Body Weight” value (UUO study: body weight; Day 11)?
A: 292 ± 17 g

Q: What about the “Mean + SD of Body Weight” value (UUO study: body weight; Day 12) of the same compound?
A: 294 ± 17 g

Q: What about the “Mean + SD of Body Weight” value (UUO study: body weight; Day 13) of the same compound?
A: 296 ± 17 g

Q: What about the “Mean + SD of Body Weight” value (UUO study: body weight; Day 14) of the same compound?
A: 300 ± 18 g

Q: What about the “Mean + SD of Body Weight” value (UUO study: body weight; Day −1) of the same compound?
A: 294 ± 7 g

Q: What about the Body weight course (UUO study: body weight; 10 mg/kg daily, 14-day study) of the same compound?
A: slight weight loss over the course of the 14-day study before regaining their original weight
